Measured values taken from patent publication US6465395B2, “Substituted methylene pyrazolinones and the herbicidal use thereof” (BASF Aktiengesellschaft, priority 2000, dated 2002).

Tests used:
Format in all cases: in vivo
[1] = system: IPOSS, Morningglory spp., Ipomoea spp.; assay: Preemergence herbicidal evaluation
Text: (§1) The preemergence herbicidal activity of the test compounds of the present invention is exemplified by the following tests in which the seeds of a variety of monocotyledonous and dicotyledonous plants are separately mixed with potting soil and planted on top of approximately one inch of soil in separate pint cups. After planting, the cups are sprayed with the selected aqueous acetone solution containing test compound in sufficient quantity to provide the equivalent of about 0.0125 kg/ha to 0.800 kg/ha of test compound per cup. The treated cups are then placed on greenhouse benches, watered and cared for in accordance with conventional greenhouse procedures. Approximately two to four weeks after treatment, the tests are terminated and each cup is examined and rated according to the rating system provided in Example 12. When more than one test is performed for a given compound, the data are averaged.

[2] = system: ABUTH, Velvetleaf, Abutilon theophrasti, Medic.; assay: Preemergence herbicidal evaluation
Text: as §1

[3] = system: CHEAL, Lambsquarters, Chenopodium album, L.; assay: Preemergence herbicidal evaluation
Text: as §1

[4] = system: PANDI, Panicum, Fall, Panicum dichotomiflorum, Michx; assay: Preemergence herbicidal evaluation
Text: as §1

[5] = system: AMBEL, Ragweed, Ambrosia artemisifolia, L.; assay: Preemergence herbicidal evaluation
Text: as §1

[6] = system: ZEAMX, Corn, Field, Zea mays, L.; assay: Preemergence herbicidal evaluation; conditions: crop (corn)
Text: as §1

[7] = system: SETVI, Foxtail, Green, Setaria viridis, (L.) Beau; assay: Preemergence herbicidal evaluation
Text: as §1

[8] = system: ORYSAT, Rice, Tebonnet, Oryza sativa, (L.) Tebonnet; assay: Preemergence herbicidal evaluation; conditions: crop (rice)
Text: as §1

[9] = system: GOSHI, Cotton, Gossypium hirsutum, L.; assay: Preemergence herbicidal evaluation; conditions: crop (cotton)
Text: as §1

[10] = system: ECHCG, Barnyardgrass, Echinochloa crus-galli, (L.) Beau; assay: Preemergence herbicidal evaluation
Text: as §1

[11] = system: GOSHI, Cotton, Gossypium hirsutum, L.; assay: Postemergence herbicidal evaluation; conditions: crop (cotton)
Description: (§2) The postemergence herbicidal activity of the compounds of the present invention is evaluated by the following tests. Seedling plants are grown in jiffy flats for about two weeks. The test compounds are dispersed in 80/20 (v/v) acetone/water mixtures containing 1.0% SUN-IT®II, a methylated seed oil, in sufficient quantities to provide the equivalent of about 0.006 kg/ha to 0.800 kg/ha of active compound when applied to the plants through a spray nozzle operating at 40 psi for a predetermined time. After spraying, the plants are placed on greenhouse benches and are cared for in accordance with conventional greenhouse procedures. Approximately two to three weeks after treatment, the seedling plants are examined and rated according to the rating system set forth below. Where more than one test is involved for a given compound, the data are averaged.

[12] = system: IPOSS, Morningglory spp., Ipomoea spp.; assay: Postemergence herbicidal evaluation
Description: as §2

[13] = system: ABUTH, Velvetleaf, Abutilon theophrasti, Medic.; assay: Postemergence herbicidal evaluation
Description: as §2

[14] = system: CHEAL, Lambsquarters, Chenopodium album, L.; assay: Postemergence herbicidal evaluation
Description: as §2

[15] = system: PANDI, Panicum, Fall, Panicum dichotomiflorum, Michx; assay: Postemergence herbicidal evaluation
Description: as §2

[16] = system: AMBEL, Ragweed, Ambrosia artemisifolia, L.; assay: Postemergence herbicidal evaluation
Description: as §2

[17] = system: ZEAMX, Corn, Field, Zea mays, L.; assay: Postemergence herbicidal evaluation; conditions: crop (corn)
Description: as §2

[18] = system: SETVI, Foxtail, Green, Setaria viridis, (L.) Beau; assay: Postemergence herbicidal evaluation
Description: as §2

[19] = system: ORYSAT, Rice, Tebonnet, Oryza sativa, (L.) Tebonnet; assay: Postemergence herbicidal evaluation; conditions: crop (rice)
Description: as §2

[20] = system: ECHCG, Barnyardgrass, Echinochloa crus-galli, (L.) Beau; assay: Postemergence herbicidal evaluation
Description: as §2

Q: Which “Herbicide rating IPOSS” value ([1]; 0.4000 kg/ha) does the source give for `CCCS/C(=C1\C=NN(CC)C1=O)c1ccc2c(c1C)/C(=N/OC)CCS2(=O)=O` [Example 8a, 1-Ethyl-4-[(E)-(5-methyl-4-oxothiochroman-6-yl)(propylthio)methylene]-2-pyrazolin-5-one 4′-[(E)-O-methyloxime], S,S-dioxide] here?
A: Its value is 0.0.

Q: And the “Herbicide rating IPOSS” value ([1]; 0.8000 kg/ha)?
A: The value was 2.0.

Q: What about the “Herbicide rating ABUTH” value ([2]; 0.4000 kg/ha) of the same compound?
A: The value was 2.0.

Q: What about the “Herbicide rating ABUTH” value ([2]; 0.8000 kg/ha) of the same compound?
A: The value was 6.0.

Q: And the “Herbicide rating CHEAL” value ([3]; 0.4000 kg/ha)?
A: Its value is 9.0.

Q: And the “Herbicide rating CHEAL” value ([3]; 0.8000 kg/ha)?
A: Its value is 9.0.

Q: And the “Herbicide rating PANDI” value ([4]; 0.4000 kg/ha)?
A: The value was 5.0.

Q: What about the “Herbicide rating PANDI” value ([4]; 0.8000 kg/ha) of the same compound?
A: The value was 8.0.

Q: What about the “Herbicide rating AMBEL” value ([5]; 0.4000 kg/ha) of the same compound?
A: The value was 3.0.

Q: And the “Herbicide rating AMBEL” value ([5]; 0.8000 kg/ha)?
A: Its value is 6.0.

Q: And the “Herbicide rating ZEAMX” value ([6]; 0.4000 kg/ha)?
A: Its value is 0.0.

Q: And the “Herbicide rating ZEAMX” value ([6]; 0.8000 kg/ha)?
A: The value was 0.0.

Q: And the “Herbicide rating SETVI” value ([7]; 0.4000 kg/ha)?
A: The value was 4.0.

Q: What about the “Herbicide rating SETVI” value ([7]; 0.8000 kg/ha) of the same compound?
A: Its value is 5.0.

Q: What about the “Herbicide rating ORYSAT” value ([8]; 0.4000 kg/ha) of the same compound?
A: Its value is 0.0.

Q: What about the “Herbicide rating ORYSAT” value ([8]; 0.8000 kg/ha) of the same compound?
A: Its value is 3.0.

Q: What about the “Herbicide rating GOSHI” value ([9]; 0.4000 kg/ha) of the same compound?
A: The value was 0.0.

Q: What about the “Herbicide rating GOSHI” value ([9]; 0.8000 kg/ha) of the same compound?
A: Its value is 2.0.

Q: And the “Herbicide rating ECHCG” value ([10]; 0.4000 kg/ha)?
A: Its value is 0.0.

Q: What about the “Herbicide rating ECHCG” value ([10]; 0.8000 kg/ha) of the same compound?
A: The value was 2.0.

Q: What about the “Herbicide rating GOSHI” value ([11]; 0.0500 kg/ha) of the same compound?
A: Its value is 0.0.

Q: What about the “Herbicide rating GOSHI” value ([11]; 0.1000 kg/ha) of the same compound?
A: Its value is 0.0.

Q: And the “Herbicide rating GOSHI” value ([11]; 0.2000 kg/ha)?
A: The value was 0.0.

Q: What about the “Herbicide rating GOSHI” value ([11]; 0.4000 kg/ha) of the same compound?
A: Its value is 3.0.

Q: What about the “Herbicide rating GOSHI” value ([11]; 0.8000 kg/ha) of the same compound?
A: Its value is 6.0.

Q: What about the “Herbicide rating IPOSS” value ([12]; 0.0500 kg/ha) of the same compound?
A: Its value is 0.0.

Q: What about the “Herbicide rating IPOSS” value ([12]; 0.1000 kg/ha) of the same compound?
A: The value was 0.0.

Q: What about the “Herbicide rating IPOSS” value ([12]; 0.2000 kg/ha) of the same compound?
A: Its value is 0.0.

Q: What about the “Herbicide rating IPOSS” value ([12]; 0.4000 kg/ha) of the same compound?
A: Its value is 2.0.

Q: What about the “Herbicide rating IPOSS” value ([12]; 0.8000 kg/ha) of the same compound?
A: The value was 4.0.

Q: What about the “Herbicide rating ABUTH” value ([13]; 0.0500 kg/ha) of the same compound?
A: Its value is 0.0.

Q: What about the “Herbicide rating ABUTH” value ([13]; 0.1000 kg/ha) of the same compound?
A: Its value is 1.0.

Q: What about the “Herbicide rating ABUTH” value ([13]; 0.2000 kg/ha) of the same compound?
A: Its value is 2.0.

Q: What about the “Herbicide rating ABUTH” value ([13]; 0.4000 kg/ha) of the same compound?
A: Its value is 8.0.

Q: And the “Herbicide rating ABUTH” value ([13]; 0.8000 kg/ha)?
A: The value was 6.0.

Q: What about the “Herbicide rating CHEAL” value ([14]; 0.0500 kg/ha) of the same compound?
A: The value was 7.0.

Q: And the “Herbicide rating CHEAL” value ([14]; 0.1000 kg/ha)?
A: The value was 9.0.

Q: What about the “Herbicide rating CHEAL” value ([14]; 0.2000 kg/ha) of the same compound?
A: Its value is 9.0.

Q: And the “Herbicide rating CHEAL” value ([14]; 0.4000 kg/ha)?
A: The value was 9.0.

Q: And the “Herbicide rating CHEAL” value ([14]; 0.8000 kg/ha)?
A: The value was 9.0.

Q: And the “Herbicide rating PANDI” value ([15]; 0.0500 kg/ha)?
A: Its value is 3.0.

Q: And the “Herbicide rating PANDI” value ([15]; 0.1000 kg/ha)?
A: The value was 6.0.

Q: And the “Herbicide rating PANDI” value ([15]; 0.2000 kg/ha)?
A: The value was 7.0.

Q: And the “Herbicide rating PANDI” value ([15]; 0.4000 kg/ha)?
A: Its value is 6.0.

Q: And the “Herbicide rating PANDI” value ([15]; 0.8000 kg/ha)?
A: Its value is 9.0.

Q: What about the “Herbicide rating AMBEL” value ([16]; 0.0500 kg/ha) of the same compound?
A: The value was 2.0.

Q: What about the “Herbicide rating AMBEL” value ([16]; 0.1000 kg/ha) of the same compound?
A: The value was 3.0.

Q: And the “Herbicide rating AMBEL” value ([16]; 0.2000 kg/ha)?
A: The value was 6.0.

Q: What about the “Herbicide rating AMBEL” value ([16]; 0.4000 kg/ha) of the same compound?
A: The value was 7.0.

Q: What about the “Herbicide rating AMBEL” value ([16]; 0.8000 kg/ha) of the same compound?
A: Its value is 8.0.

Q: What about the “Herbicide rating ZEAMX” value ([17]; 0.0500 kg/ha) of the same compound?
A: The value was 0.0.

Q: What about the “Herbicide rating ZEAMX” value ([17]; 0.1000 kg/ha) of the same compound?
A: The value was 0.0.

Q: And the “Herbicide rating ZEAMX” value ([17]; 0.2000 kg/ha)?
A: Its value is 0.0.

Q: And the “Herbicide rating ZEAMX” value ([17]; 0.4000 kg/ha)?
A: The value was 0.0.

Q: And the “Herbicide rating ZEAMX” value ([17]; 0.8000 kg/ha)?
A: Its value is 0.5.

Q: What about the “Herbicide rating SETVI” value ([18]; 0.0500 kg/ha) of the same compound?
A: The value was 1.0.

Q: What about the “Herbicide rating SETVI” value ([18]; 0.1000 kg/ha) of the same compound?
A: The value was 4.0.

Q: What about the “Herbicide rating SETVI” value ([18]; 0.2000 kg/ha) of the same compound?
A: The value was 5.0.

Q: And the “Herbicide rating SETVI” value ([18]; 0.4000 kg/ha)?
A: The value was 8.0.

Q: What about the “Herbicide rating SETVI” value ([18]; 0.8000 kg/ha) of the same compound?
A: The value was 9.0.

Q: What about the “Herbicide rating ORYSAT” value ([19]; 0.0500 kg/ha) of the same compound?
A: The value was 0.0.

Q: And the “Herbicide rating ORYSAT” value ([19]; 0.1000 kg/ha)?
A: The value was 0.7.

Q: And the “Herbicide rating ORYSAT” value ([19]; 0.2000 kg/ha)?
A: The value was 1.5.

Q: And the “Herbicide rating ORYSAT” value ([19]; 0.4000 kg/ha)?
A: Its value is 5.0.

Q: And the “Herbicide rating ORYSAT” value ([19]; 0.8000 kg/ha)?
A: The value was 5.0.

Q: And the “Herbicide rating ECHCG” value ([20]; 0.0500 kg/ha)?
A: The value was 8.0.

Q: And the “Herbicide rating ECHCG” value ([20]; 0.1000 kg/ha)?
A: The value was 8.0.

Q: What about the “Herbicide rating ECHCG” value ([20]; 0.2000 kg/ha) of the same compound?
A: The value was 8.0.

Q: What about the “Herbicide rating ECHCG” value ([20]; 0.4000 kg/ha) of the same compound?
A: The value was 9.0.

Q: And the “Herbicide rating ECHCG” value ([20]; 0.8000 kg/ha)?
A: Its value is 9.0.
